# Data reported in the supplement of paper PMC10307832.
# Experiments:
# Assay in all cases: relative viability (nuclei count vs DMSO), 5 days (fraction); higher = more cells survive
# Nelarabine + Phenformin = compound: COc1nc(N)nc2c1ncn2[C@@H]1O[C@H](CO)[C@@H](O)[C@@H]1O [Nelarabine] + N=C(N)NC(=N)NCCc1ccccc1 [Phenformin] (partner 250 µM)
# Procedure, shortened: (§1)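 Each reported value is a median over duplicate plates. It expresses relative viability: treated-well nuclei count divided by vehicle-well nuclei count. Lung cancer cell lines in 1536-well plates were dosed by pin tool a day after seeding, alone with one drug or with a fixed anchor-drug dose plus five library-drug doses (not always all listed) in √10 steps, and nuclei were counted after 5 days.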
# Nelarabine + Palbociclib = compound: COc1nc(N)nc2c1ncn2[C@@H]1O[C@H](CO)[C@@H](O)[C@@H]1O [Nelarabine] + CC(=O)c1c(C)c2cnc(Nc3ccc(N4CCNCC4)cn3)nc2n(C2CCCC2)c1=O [Palbociclib] (partner 0.5 µM)
# Procedure, shortened: as §1
# Nelarabine + Alpelisib = compound: COc1nc(N)nc2c1ncn2[C@@H]1O[C@H](CO)[C@@H](O)[C@@H]1O [Nelarabine] + Cc1nc(NC(=O)N2CCC[C@H]2C(N)=O)sc1-c1ccnc(C(C)(C)C(F)(F)F)c1 [Alpelisib] (partner 2 µM)
# Procedure, shortened: as §1
# Nelarabine + Tozasertib = compound: COc1nc(N)nc2c1ncn2[C@@H]1O[C@H](CO)[C@@H](O)[C@@H]1O [Nelarabine] + Cc1cc(Nc2cc(N3CCN(C)CC3)nc(Sc3ccc(NC(=O)C4CC4)cc3)n2)n[nH]1 [Tozasertib] (partner 0.1 µM)
# Procedure, shortened: as §1
Cell Line,relative viability (Nelarabine + Phenformin; first compound 0.01 µM),relative viability (Nelarabine + Phenformin; first compound 0.03162 µM),relative viability (Nelarabine + Phenformin; first compound 0.1 µM),relative viability (Nelarabine + Phenformin; first compound 0.3162 µM),relative viability (Nelarabine + Phenformin; first compound 1 µM),relative viability (Nelarabine + Palbociclib; first compound 0.01 µM),relative viability (Nelarabine + Palbociclib; first compound 0.03162 µM),relative viability (Nelarabine + Palbociclib; first compound 0.1 µM),relative viability (Nelarabine + Palbociclib; first compound 0.3162 µM),relative viability (Nelarabine + Palbociclib; first compound 1 µM),relative viability (Nelarabine + Alpelisib; first compound 0.01 µM),relative viability (Nelarabine + Alpelisib; first compound 0.03162 µM),relative viability (Nelarabine + Alpelisib; first compound 0.1 µM),relative viability (Nelarabine + Alpelisib; first compound 0.3162 µM),relative viability (Nelarabine + Alpelisib; first compound 1 µM),relative viability (Nelarabine + Tozasertib; first compound 0.01 µM),relative viability (Nelarabine + Tozasertib; first compound 0.03162 µM),relative viability (Nelarabine + Tozasertib; first compound 0.1 µM),relative viability (Nelarabine + Tozasertib; first compound 0.3162 µM),relative viability (Nelarabine + Tozasertib; first compound 1 µM)
201T,0.459,0.416,0.451,0.433,0.417,0.391,0.352,0.409,0.389,0.351,1.06,1.02,0.968,1.03,1,1.12,0.692,0.885,1.08,0.926
A549,0.209,0.116,0.161,0.119,0.143,–,–,–,–,–,0.885,0.879,0.783,0.818,0.858,–,–,–,–,–
A-427,0.315,0.22,0.306,0.289,0.236,0.528,0.533,0.56,0.533,0.53,0.851,1.06,1.11,1.07,1.05,0.181,0.204,0.169,0.175,0.181
ABC-1,0.216,0.212,0.258,0.231,0.229,0.624,0.553,0.762,0.625,0.692,1.06,1.3,1.24,0.937,1.08,0.233,0.149,0.162,0.146,0.175
BEN,0.264,0.269,0.276,0.221,0.273,0.532,0.452,0.497,0.491,0.494,1.53,0.95,1.1,1.06,1.08,0.566,0.495,0.551,0.546,0.452
CAL-12T,0.664,0.575,0.533,0.582,0.621,0.474,0.489,0.551,0.412,0.515,1.86,1.48,1.16,1.4,1.37,0.358,0.309,0.316,0.303,0.363
COR-L23,0.525,0.385,0.356,0.416,0.448,0.4,0.243,0.26,0.267,0.282,0.969,0.768,0.743,0.869,0.747,0.199,0.165,0.168,0.22,0.185
COR-L 105,0.497,0.594,0.473,0.454,0.458,0.383,0.354,0.43,0.385,0.421,1.15,1.11,1.03,1.3,0.985,0.356,0.353,0.302,0.362,0.433
Calu-6,–,–,–,–,–,–,–,–,–,–,1.1,–,0.979,0.972,1.11,–,–,–,–,–
ChaGo-K-1,0.549,0.426,0.458,0.529,0.48,0.939,0.815,0.964,0.989,0.876,–,–,–,–,–,0.237,0.205,0.193,0.232,0.231
EBC-1,–,–,–,–,–,–,–,–,–,–,0.86,0.829,0.941,0.87,0.951,–,–,–,–,–
EKVX,0.22,0.234,0.231,0.22,0.232,0.373,0.356,0.549,0.348,0.361,0.958,0.772,0.717,1.04,0.832,0.463,0.476,0.449,0.372,0.395
EMC-BAC-2,0.587,0.463,0.493,0.517,0.539,0.539,0.514,0.512,0.529,0.514,0.794,0.585,0.73,0.799,0.815,0.307,0.236,0.277,0.239,0.297
EPLC-272H,0.236,0.291,0.272,0.265,0.291,0.337,0.263,0.236,0.337,0.28,0.986,0.932,1.03,0.926,0.808,0.219,0.2,0.287,0.295,0.253
H3255,–,0.361,0.341,0.321,0.337,0.327,0.292,0.311,0.315,0.355,0.859,0.897,0.644,0.687,0.75,–,0.896,0.685,0.576,0.515
HARA,0.62,0.488,0.422,0.579,0.505,0.202,0.253,0.228,0.273,0.287,0.925,0.737,0.768,1.09,0.806,0.119,0.112,0.0991,0.0991,0.105
HCC-15,0.582,0.443,0.426,0.51,0.498,0.847,0.695,0.788,0.837,0.677,1.09,0.822,0.847,0.983,0.934,0.48,0.268,0.377,0.412,0.39
HCC-44,0.194,0.157,0.173,0.167,0.185,0.985,0.955,0.978,0.984,0.944,0.888,0.876,0.74,0.871,0.831,1.27,1.25,1,1.11,0.867
HCC-78,0.709,0.684,–,0.709,0.701,0.433,0.41,–,0.484,0.46,0.349,0.336,–,0.349,0.4,0.492,0.415,–,0.384,0.401
